In this test the test system is golden hamsters. Kind of test: Administration test of α-glucosyl-hesperidin on hamsters (serum GOT and GPT, cholesterol-supplemented feed). The class given is in vivo, golden hamster. The note with it: compared with hesperidin at equal molar dose. How it is done:
The animal experiment using hamsters was performed to investigate the influences of the intake of α-glucosyl-hesperidin on hepatic functions.
A group of five golden hamsters of five weeks old was fed on liberal amount of “NMF Lab Animal Diet Powder” (produced by Oriental Yeast Co., Ltd.) with the administration of “αG-HESPERIDINPS®” (a powdery α-glucosyl-hesperidin containing […] of α-glucosyl-hesperidin, commercialized by Hayashibara Shoji, Inc.) dissolved in distilled water. α-Glucosyl-hesperidin was administered to the hamsters through a stomach sonde at a dose of 0.25 mmole (193 mg)/kg/body weight every day. After two-week administrations of α-glucosyl-hesperidin, the hamsters were fed for additional three weeks in the same way as described above except that their feed was supplemented with 1% by weight of cholesterol. At four hours after the final administrations, the hamsters were anesthetized and underwent laparotomy, and their large-venous blood samples were taken. After the separation of the hamsters' serums by a conventional method, the levels of GOT and GPT were measured. […] The other group was fed on liberal amount of “NMF Lab Animal Diet Powder” with no administration of the test articles and their blood samples were taken in the same way as describe above, and the serum levels of GOT and GPT were measured to obtain the data before the administrations.

On to `COc1ccc(C2CC(=O)c3c(O)cc(O[C@@H]4OC(CO[C@@H]5OC(C)[C@H](O)C(O)C5O)[C@@H](COC[C@H]5OC(CO)[C@@H](O)C(O)C5O)C(O)C4O)cc3O2)cc1O` (stereo partly drawn) [α-Glucosyl-hesperidin, α-glucosyl-hesperidin], for which the “effect for keeping hepatic-function indexes (serum GOT, GPT) at a lower level” value is given as “greater effect than that of hesperidin”.

The record behind these values is patent US20100210589A1, “METHOD FOR IMPROVING HEPATIC FUNCTION” (Kabushiki Kaisha Kayashibara Seibutsu Kagaku Kenkyujo, priority 2004, published 2010).
